# Patent US20250281503A1, “DO3A-BASED ANTITHROMBOTIC AGENT OR HEMOLYTIC AGENT CONTAINING GADOLINIUM COMPLEX” (ETNOVA THERAPEUTICS CORP., priority 2022, published 2025)
# System: Rat platelets
# Assay: Platelet aggregation inhibition (4-channel platelet lumi-aggregometer)
# Format: cell-based
# Details: compound 100 μM, compared to control (vehicle), FIG. 2
# Protocol: In order to evaluate the platelet aggregation activity of MBP-11902 according to Present Example 1 of the present disclosure, the platelet aggregation was activated in rat plasma with platelet aggregation factors and agonists, thrombin, collagen, ADP (adenosine diphosphate), U46619 (thromboxane A2 agonist), and PMA (phorbol-12-myristate-13-acetate), and then, the rat plasma was pretreated with vehicle (distilled water) and various doses (100, 300, and 500 μM) of MBP-11902, and then a 4-channel platelet lumi-aggregometer (Chronolog Corp, Havertown, PA) was used to measure the value indicating the platelet aggregation level, and the results are shown in FIG. 1. […]
# Rat platelets were placed in HEPES-Tyrode buffer at a concentration of 3×10^8 cells/mL and pretreated with the vehicle (distilled water) and various doses (100, 300, and 500 μM) of MBP-11902 at 37° C. for 15 minutes, and then activated with collagen, thrombin, ADP, U46619 (endoperoxide/thromboxane analogs), and PMA (PKC activator), which are known as agonists in the platelet aggregation system. The platelet aggregation was induced at 1,000 rpm in a platelet aggregation system (Chronolog Corp, Havertown, PA) at 37° C. and then, the platelet aggregation level was measured.
smiles,measurement,setting,value
"O=C(O)c1cc(-c2ccc(F)cc2F)ccc1O [NSAID, Diflunisal]",platelet aggregation induced by collagen (comparative evaluation),collagen 1 μg/mL,significantly inhibit
same,platelet aggregation induced by thrombin (comparative evaluation),thrombin 0.05 U/ml,significantly inhibit
